{"source": "patent US20100112181A1", "about": "“Recovery of Antioxidants from Decaffeination Process” (priority 2008, published 2010)", "origin": "cited, not measured here", "conditions": "reported by K. Iwai et al., 2004", "data": [{"substance": "dicaffeoylquinic acids [di-CQA's]", "values": [{"measurement": "antioxidant activity relative to CQA's (in words)", "result": "higher antioxidant activity than the CQA's"}]}]}
